{
  "source": "patent US20260166017A1",
  "about": "“SARM1 INHIBITORS FOR USE IN THERAPY AND COSMETICS” (priority 2022, published 2026)",
  "key": {"[1]": {"target": "T1, SARM1 (Homo sapiens, UniProt Q6SZW1)", "T1 sequence (Q6SZW1 28-724)": "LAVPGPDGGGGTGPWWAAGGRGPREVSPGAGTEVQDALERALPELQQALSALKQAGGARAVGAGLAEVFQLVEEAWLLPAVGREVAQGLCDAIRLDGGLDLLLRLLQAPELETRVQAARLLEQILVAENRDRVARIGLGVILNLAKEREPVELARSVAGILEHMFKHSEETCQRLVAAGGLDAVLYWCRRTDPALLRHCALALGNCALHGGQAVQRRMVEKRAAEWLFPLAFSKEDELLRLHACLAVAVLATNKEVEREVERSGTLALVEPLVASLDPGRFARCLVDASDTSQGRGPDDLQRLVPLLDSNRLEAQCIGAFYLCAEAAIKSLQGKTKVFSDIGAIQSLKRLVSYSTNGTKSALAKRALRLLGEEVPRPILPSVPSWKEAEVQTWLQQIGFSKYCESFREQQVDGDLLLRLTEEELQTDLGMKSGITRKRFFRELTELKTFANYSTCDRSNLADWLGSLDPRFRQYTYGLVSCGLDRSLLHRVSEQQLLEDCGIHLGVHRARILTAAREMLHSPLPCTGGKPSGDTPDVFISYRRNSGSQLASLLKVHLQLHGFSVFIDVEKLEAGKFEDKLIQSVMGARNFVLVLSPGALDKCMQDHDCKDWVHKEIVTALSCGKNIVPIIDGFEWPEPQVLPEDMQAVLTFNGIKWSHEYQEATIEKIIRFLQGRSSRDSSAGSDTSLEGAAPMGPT", "conditions": "cited from earlier work; for SARM1 activation in in vitro assays: Zhao et al., 2019; for SARM1 activation on binding in the allosteric site (ARM domain): Figley et al."}, "[2]": {"tested_on": "Schwann cells", "experiment": "Intracellular NAD+ in Schwann cells (NAD-glo assay)", "assay_type": "cell-based, mouse", "conditions": "250 μM 3AP, 72 hours, compared to DMSO control, listed as 3AP", "method": "(§1) Freshly plated mouse Schwann cells were obtained from P2 sciatic and brachial nerves. Nerves were digested with trypsin and collagenase, centrifuged and plated on laminin/Poly-L-lysine coated glass coverslips in defined medium as previously described (Arthur-Farraj et al., 2011).\n[…] Protein was extracted using Pierce™ IP Lysis Buffer supplemented with cOmplete™ Mini EDTA-free Protease Inhibitor Cocktail, and a BCA assay carried out to determine protein concentration. All samples were diluted to 0.5 μg/μL. The NAD-glo assay was performed according to manufacturer's instruction of the NAD^+/NADH-Glo™ assay by Promega (G9071). In short, 25 μL of sample were incubated with 12.5 μL 0.4M HCl at 60° C. for 15 min, before 12.5 μL 0.5M Tris base were added. 10 μL NAD^+ standards or sample were then mixed with 10 μL NAD-glo master mix (1 ml luciferin detection reagent, 5 μl reductase, 5 μl reductase substrate, 5 μl NAD^+ cycling enzyme, 25 μl NAD^+ cycling substrate) and incubated at RT for 40 min. Luminescence was read using a GloMax® Explorer microplate reader and NAD^+ concentrations determined relative to a NAD^+ standard curve."}, "[3]": {"tested_on": "expanded mouse Schwann cells", "experiment": "Cell death in expanded mouse Schwann cells passaged three times (phase contrast, propidium iodide)", "assay_type": "cell-based", "conditions": "250 μM 3-AP for 72 hours vs water; Schwann cells passaged three times in proliferative medium", "method": "Mouse SCs were passaged on PLL/laminin coated dishes in the presence of low serum (0.5% horse serum), 10 ng/ml Bneuregulin1 (BNRG1), and a low concentration cyclic adenosine monophosphate (CAMP) elevating signal, such as 2 μM forskolin or 100 μM dibutryl cAMP (Arthur-Farraj et al., 2011). Full protocol is described in (Mutschler et al., 2023)."}, "[4]": {"tested_on": "neuronal cultures", "conditions": "Loreto et al., 2021, Wu et al.; cited from earlier work"}, "[5]": {"tested_on": "freshly plated P2 mouse Schwann cells", "experiment": "Cell death in freshly plated P2 mouse Schwann cells (propidium iodide, DAPI, SOX10)", "assay_type": "cell-based", "conditions": "250 μM 3-AP for 72 hours vs water", "method": "as §1\nSciatic and optic nerves were dissected from Wt and Sarm1 KO mice and directly embedded in O.C.T. compound, without fixing, and stored at −80° C. until ready for cryosectioning. Cryosections at 5 μm thick were collected onto SuperFrost plus slides. These slides were post-fixed in 4% paraformaldehyde (PFA) at room temperature for 10 mins followed by three washes of 5 mins each with 1×PBS. The slides were then immersed in 100% methanol at −20° C. for 10 mins, followed by three washes of 5 mins each with 1×PBS. The slides were then blocked in 5% horse serum (HS)/0.2% Triton x-100/PBS for 30 mins at room temperature. Primary antibodies were diluted in blocking solution and slides were incubated overnight at 4° C. The following day, the slides were washed once for 5 mins with 1×PBS, twice for 5 mins with 0.1% tween/PBS and finally once again for 5 mins with 1×PBS before adding secondary antibodies. The corresponding secondary antibodies were diluted at 1:500 along with DAPI at 1:2000 for 2 hrs at room temperature and kept in the dark. […]"}, "[6]": {"target": "T1, SARM1", "conditions": "Zhao et al., 2019; cited from earlier work"}},
  "note": "Entries after “also recorded” stand apart in the source; their conditions may differ.",
  "data": [
    {"compound": "NC(=O)c1ccc[n+]([C@@H]2O[C@H](COP(=O)(O)O)C(O)C2F)c1", "note": "(some centres unmarked) [CZ-17, ara-F-NMN]", "values": [
      {"measurement": "SARM1 activation in in vitro assays", "setting": "[1]", "result": "can activate SARM1"}
    ]},
    {"compound": "O=C(NCc1ccc[n+](C2OC(COP(=O)([O-])O)C(O)C2O)c1)Nc1ccc([N+](=O)[O-])cc1", "note": "(centres unmarked) [VMN, Vacor Mononucleotide]", "values": [
      {"measurement": "SARM1 activation on binding in the allosteric site (ARM domain)", "setting": "[1]; Loreto et al., 2021", "result": "potently activates SARM1"}
    ]},
    {"compound": "NC(=O)c1ccc[n+]([C@@H]2O[C@H](COP(=O)(O)O)C(O)C2O)c1", "note": "(some centres unmarked) [NMN, Nicotinamide Mononucleotide]", "values": [
      {"measurement": "SARM1 activation on binding in the allosteric site (ARM domain)", "setting": "[1]; Loreto et al., 2021", "result": "potently activates it"}
    ]},
    {"compound": "CC(=O)c1cccnc1", "note": "[3-AP, 3-acetylpyridine]", "values": [
      {"measurement": "Intracellular NAD+ levels", "setting": "[2]", "result": "do not change"},
      {"measurement": "cell death by propidium iodide (P.I.) staining and phase contrast", "setting": "[3]", "result": "susceptible to cellular dysfunction and death; also recorded: substantial increase in P.I. staining"},
      {"measurement": "effect of high dose on neuronal cultures", "setting": "[4]", "result": "axonal degeneration and cell death within hours"},
      {"measurement": "SARM1 activity on interaction with active site (TIR domain) for base exchange reaction", "setting": "[1]; Loreto et al., 2021, Angeletti et al., 2022, Wu et al.", "result": "increase in SARM1 activity"},
      {"measurement": "cell death judged by propidium iodide (P.I) and DAPI nuclear staining and SOX10 immunocytochemistry", "setting": "[5]", "result": "completely insensitive; also recorded: no cell death"}
    ]},
    {"compound": "sulfo-ara-F-NMN [CZ-48]", "values": [
      {"measurement": "SARM1 activation in cells", "setting": "[6]", "result": "can activate SARM1"},
      {"measurement": "SARM1 activation in in vitro assays", "setting": "[1]", "result": "can activate SARM1"}
    ]},
    {"compound": "NC(=O)c1ccc[n+]([C@@H]2O[C@H](COP(O)(O)=S)C(O)C2O)c1", "note": "(some centres unmarked) [S-NMN]", "values": [
      {"measurement": "SARM1 activation in in vitro assays", "setting": "[1]", "result": "can activate SARM1"}
    ]}
  ]
}
